Reference: US8455663B2, “Halosubstituted aryloxyalkylimidazolines for use as pesticides” (Syngenta Crop Protection LLC, priority 2007, dated 2013)
Where two headings read alike, the source gives them in different places.

Tests used:
Format in all cases: in vivo
T. Urticae = test: Tetranychus urticae bean leaf disc test, comparison with prior art compounds A and B; conditions: 12.5 ppm spray on bean leaf discs; mixed ages; 8 days; egg, larval and adult mortality
Excerpt: 4.4.2 In a further test, the efficacy of one of the compounds giving 100% control in Example 4.4.1 above was compared to the efficacy of imidazoline compounds from the prior art (compounds A and B).
Bean leaf discs on agar in 24-well microtiter plates were sprayed with test solutions at an application rate of 12.5 ppm. After drying, the leaf discs are infested with mite populations of mixed ages. 8 days later, discs are checked for egg mortality, larval mortality, and adult mortality.

Heliothis virescens = Heliothis virescens (tobacco budworm) egg/larvae test on artificial diet; conditions: for pest or weed control at 200 ppm: Heliothis virescens, 96 h, read-out: control of Heliothis virescens
Method: 4.1 Heliothis Virescens (Tobacco Budworm):
Eggs (0-24 h old) were placed in 24-well microtiter plate on artificial diet and treated with test solutions at an application rate of 200 ppm by pipetting. After an incubation period of 4 days, samples were checked for egg mortality, larval mortality, and growth regulation.

Myzus persicae [1] = test: Myzus persicae (green peach aphid) sunflower leaf disc spray test; conditions: for pest or weed control at 200 ppm: Myzus persicae, foliar, 144 h, read-out: control of Myzus persicae
Method: 4.2 Myzus Persicae (Green Peach Aphid):
Sunflower leaf discs were placed on agar in a 24-well microtiter plate and sprayed with test solutions at an application rate of 200 ppm. After drying, the leaf discs were infested with an aphid population of mixed ages. After an incubation period of 6 DAT, samples were checked for mortality.

Myzus persicae [2] = test: Myzus persicae (green peach aphid) pea seedling root uptake test; conditions: for pest or weed control at 24 ppm: Myzus persicae, 144 h, read-out: control of Myzus persicae
Excerpt: 4.3 Myzus Persicae (Green Peach Aphid):
Roots of pea seedlings, infested with an aphid population of mixed ages, were placed directly in the test solutions of 24 ppm. 6 days after introduction, samples were checked for mortality.

Tetranychus urticae = Tetranychus urticae (two-spotted spider mite) bean leaf disc spray test; conditions: for pest or weed control at 200 ppm: Tetranychus urticae, foliar, 192 h, read-out: control of Tetranychus urticae
Excerpt: 4.4 Tetranychus Urticae (Two-Spotted Spider Mite):
4.4.1 Bean leaf discs on agar in 24-well microtiter plates were sprayed with test solutions at an application rate of 200 ppm. After drying, the leaf discs are infested with mite populations of mixed ages. 8 days later, discs are checked for egg mortality, larval mortality, and adult mortality.

[3] = 200 ppm by pipetting on eggs (0-24 h old) on artificial diet, 4 days, egg mortality, larval mortality, growth regulation
[4] = 200 ppm spray on sunflower leaf discs, mixed ages, 6 DAT, mortality
[5] = 24 ppm test solution, roots of infested pea seedlings, 6 days, mortality
[6] = 200 ppm spray on bean leaf discs, mixed ages, 8 days, egg, larval and adult mortality

SMILES	pest or weed control at 200 ppm (Heliothis virescens; [3]) [%]	pest or weed control at 200 ppm (Myzus persicae [1]; [4]) [%]	pest or weed control at 24 ppm (Myzus persicae [2]; [5]) [%]	pest or weed control at 200 ppm (Tetranychus urticae; [6]) [%]	further results
CCC(Oc1cccc(Cl)c1Cl)C1=NCCN1 (stereo not drawn) [A]					Control % (T. Urticae): 0%
CCC(Oc1cccc(C)c1Cl)C1=NCCN1 (stereo not drawn) [B]					Control % (T. Urticae): 50%
CCC(Oc1cccc(C(F)(F)F)c1Cl)C1=NCCN1 (stereo not drawn) [Compound 1.001, 2-[1-(2-Chloro-3-trifluormethyl-phenoxy)-propyl]-4,5-dihydro-1H-imidazole]	50	100	100	100	Control % (T. Urticae): 80%
CCC(Oc1cccc(C(F)F)c1Cl)C1=NCCN1 (stereo not drawn) [Compound 1.002, 2-[1-(2-Chloro-3-difluoromethyl-phenoxy)-propyl]-4,5-dihydro-1H-imidazole]					pest or weed control at 200 ppm (Heliothis virescens): 0%; pest or weed control at 200 ppm (Myzus persicae [1]): 100%; pest or weed control at 24 ppm (Myzus persicae [2]): 80%; pest or weed control at 200 ppm (Tetranychus urticae): 100%
CCC(Oc1cccc(C(F)F)c1Cl)C1=NCCN1C(=O)OC(C)(C)C (stereo not drawn) [Compound 1.003]	0	100	0	0	
CCC(Oc1cccc(CO)c1Cl)C1=NCCN1 (stereo not drawn) [Compound 1.005]	0	0	0	0	
CCC(Oc1cccc(CF)c1Cl)C1=NCCN1 (stereo not drawn) [Compound 1.006]	100	100	80	100	
CCC(Oc1cccc(CO)c1Cl)C1=NCCN1C(=O)OC(C)(C)C (stereo not drawn) [Compound 1.007]	0	0		0	
CCC(Oc1cccc(COC)c1Cl)C1=NCCN1 (stereo not drawn) [Compound 1.008]					control of Heliothis virescens (Heliothis virescens; [3]): 80%; control of Myzus persicae (Myzus persicae [1]; [4]): 0%; control of Tetranychus urticae (Tetranychus urticae; [6]): 0%
C#Cc1cccc(OC(CC)C2=NCCN2)c1Cl (stereo not drawn) [Compound 1.011, 2-[1-(2-Chloro-3-ethynyl-phenoxy)-propyl]-4,5-dihydro-1H-imidazole]	50	50		0	
C=Cc1cccc(OC(CC)C2=NCCN2)c1Cl (stereo not drawn) [Compound 1.012]	0	0		0	
CC(Oc1cccc(C(F)(F)F)c1Cl)C1=NCCN1 (stereo not drawn) [Compound 1.014]	80	100	50	80	
CCCC(Oc1cccc(C(F)(F)F)c1Cl)C1=NCCN1 (stereo not drawn) [Compound 1.015]					control of Heliothis virescens (Heliothis virescens; [3]): 100%; control of Myzus persicae (Myzus persicae [1]; [4]): 100%; control of Myzus persicae (Myzus persicae [2]; [5]): 50%; control of Tetranychus urticae (Tetranychus urticae; [6]): 100%
CC(C)C(Oc1cccc(C(F)(F)F)c1Cl)C1=NCCN1 (stereo not drawn) [Compound 1.016]	0	100	80	100	
C=Cc1cccc(OC(CC)C2=NCCN2C(=O)OC(C)(C)C)c1Cl (stereo not drawn) [Compound 1.017]	0	0		0	
CCC(Oc1cccc(CSC)c1Cl)C1=NCCN1 (stereo not drawn) [Compound 1.019]					control of Heliothis virescens (Heliothis virescens; [3]): 0%; control of Myzus persicae (Myzus persicae [1]; [4]): 0%; control of Tetranychus urticae (Tetranychus urticae; [6]): 0%
CCC(Oc1cccc(C(F)(F)F)c1I)C1=NCCN1.O=C(O)/C=C\C(=O)O (stereo not drawn) [Compound 1.020]					control of Heliothis virescens (Heliothis virescens; [3]): 0%; control of Myzus persicae (Myzus persicae [1]; [4]): 100%; control of Myzus persicae (Myzus persicae [2]; [5]): 80%; control of Tetranychus urticae (Tetranychus urticae; [6]): 100%

SMILES	pest or weed control at 200 ppm (Heliothis virescens; [3]) [%]	pest or weed control at 200 ppm (Myzus persicae [1]; [4]) [%]	pest or weed control at 24 ppm (Myzus persicae [2]; [5]) [%]	pest or weed control at 200 ppm (Tetranychus urticae; [6]) [%]	further results
CCCC(Oc1cccc(Br)c1Br)C1=NCCN1 (stereo not drawn) [Compound 1.021]	100	100	0	100	
CCCC(Oc1cccc(I)c1Br)C1=NCCN1 (stereo not drawn) [Compound 1.022]	50	100		80	
CC(Oc1cccc(C(F)F)c1Cl)C1=NCCN1 (stereo not drawn) [Compound 1.023]	80	100	0	0	
CCC(Oc1cccc(C#N)c1Cl)C1=NCCN1 (stereo not drawn) [Compound 1.024]	0	80	50	100	
CCC(Oc1cccc(C#N)c1Cl)C1=NCCN1C(=O)OC(C)(C)C (stereo not drawn) [Compound 1.025]	0	0		50	
CCCCC(Oc1cccc(C(F)(F)F)c1Cl)C1=NCCN1 (stereo not drawn) [Compound 1.027]	50	80	0	100	
CCCC(Oc1cccc(C(F)F)c1Cl)C1=NCCN1 (stereo not drawn) [Compound 1.028]	80	100	100	100	
CCCCC(Oc1cccc(C(F)F)c1Cl)C1=NCCN1 (stereo not drawn) [Compound 1.029]	80				
CC(C)C(Oc1cccc(C(F)F)c1Cl)C1=NCCN1 (stereo not drawn) [Compound 1.030]	0	100	80	100	
CCCC(Oc1cccc(CF)c1Cl)C1=NCCN1 (stereo not drawn) [Compound 1.031]	0	100	80	100	
CCCCC(Oc1cccc(CF)c1Cl)C1=NCCN1 (stereo not drawn) [Compound 1.032]	0	100	50	0	
CCCC(Oc1cccc(I)c1Cl)C1=NCCN1 (stereo not drawn) [Compound 1.033]	80	100	0	80	
CCC(Oc1cccc(CCl)c1Cl)C1=NCCN1C(=O)OC(C)(C)C (stereo not drawn) [Compound 1.034]					control of Heliothis virescens (Heliothis virescens; [3]): 100%; control of Myzus persicae (Myzus persicae [1]; [4]): 0%; control of Tetranychus urticae (Tetranychus urticae; [6]): 0%
CCC(Oc1cccc(C[S+](C)[O-])c1Cl)C1=NCCN1 (stereo not drawn) [Compound 1.035]					control of Heliothis virescens (Heliothis virescens; [3]): 0%; control of Myzus persicae (Myzus persicae [1]; [4]): 0%; control of Tetranychus urticae (Tetranychus urticae; [6]): 0%
CCCC(Oc1cccc(Br)c1Cl)C1=NCCN1 (stereo not drawn) [Compound 1.036]	100	100	0	100	
CC(C)C(Oc1cccc(CF)c1Cl)C1=NCCN1 (stereo not drawn) [Compound 1.037]	80	100	50	100	
